Source: patent US20060008512A1, “Composition and methods for improved animal performance” (priority 2004, published 2006)
Where two headings read alike, the source gives them in different places.

How the values were obtained:
[1] = system: Hy-Line W-36 White Leghorn hens
Method: Experiment 1. […] While acknowledging that injecting individual hens is commercially impractical (Webster, 2003), nevertheless an initial study was needed to establish the efficacy of T4 when it is delivered directly into the hens in precisely measured doses. The photoperiod was 17 hours of light per day (0330 hours to 2030 hours).

[2] = system: laying turkeys; conditions: 2 mg L-thyroxine/hen/day i.m.; cited from earlier work
[3] = system: growing cockerel and pullet chickens; conditions: 10 mg/kg dietary thyroid hormone; cited from earlier work
[4] = system: 96-week old broiler breeder cockerels; conditions: 2 or 5 ppm T4 in diet for 4 weeks; cited from earlier work

With `N[C@@H](Cc1cc(I)c(Oc2cc(I)c(O)c(I)c2)c(I)c1)C(=O)O` [L-thyroxine, 3,5,3′,5′-tetraiodo-L-thyronine] the Egg production ([1]; 250 μg T4 per kg body weight for 12 consecutive days) was “did not reduce egg production significantly”, the “Onset of molt in all cages after the start of T4 injection” value ([1]; 500 μg T4 Group) was 11 days and the “Day of T4 injection by which egg production ceased entirely” value ([1]; 1,000 μg T4 Group) was at most 8 days. For the same compound, the “Onset of molt in all cages after the start of T4 injection” value ([1]; 1,000 μg T4 Group) was 9 days, the Mortality ([1]; 1,000 μg T4 Group, 2 of 8 hens, 9th and 10th day after start of injection) was 25% and the “Time to complete cessation of egg production” value ([1]; 2,000 μg T4 per kg body weight for 3 consecutive days) was at most 6 days. For the same compound, the Mortality ([1]; 4,000 μg T4 Group, 1 of 4 hens, 8th day after start of injection) was 25%, the “Time to complete cessation of egg production” value ([1]; 4,000 μg T4 per kg body weight for 3 consecutive days) was at most 4 days and the “End of Injections Body Weight” value ([1]; 250 mcg/kg body wt i.m. 12 d) was 1300 g. The “Initial Body Weight” value ([1]; 250 mcg/kg body wt i.m. 12 d) was 1495 g, the Hen-day egg production ([1]; 250 mcg/kg body wt i.m. 12 d from day 15, day 14) was 93.8% and the Hen-day egg production ([1]; 250 mcg/kg body wt i.m. 12 d from day 15, day 16) was 87.5%. For the same compound, the Hen-day egg production ([1]; 250 mcg/kg body wt i.m. 12 d from day 15, day 18) was 68.8%, the Hen-day egg production ([1]; 250 mcg/kg body wt i.m. 12 d from day 15, day 20) was 56.3% and the Hen-day egg production ([1]; 250 mcg/kg body wt i.m. 12 d from day 15, day 22) was 25.0%. It also gave a Hen-day egg production ([1]; 250 mcg/kg body wt i.m. 12 d from day 15, day 24) of 31.3%, a Hen-day egg production ([1]; 250 mcg/kg body wt i.m. 12 d from day 15, day 26) of 37.5% and a Hen-day egg production ([1]; 250 mcg/kg body wt i.m. 12 d from day 15, day 28) of 31.3%. The Hen-day egg production ([1]; 250 mcg/kg body wt i.m. 12 d from day 15, day 30) was 37.5%, the “Time after start of injecting until egg production significantly reduced” value ([1]; 500 and 1,000 μg T4 Groups) was 4 days and the “End of Injections Body Weight” value ([1]; 500 mcg/kg body wt i.m. 8 d) was 1299 g. The “Initial Body Weight” value ([1]; 500 mcg/kg body wt i.m. 8 d) was 1472 g, the Hen-day egg production ([1]; 500 mcg/kg body wt i.m. 8 d from day 15, day 14) was 87.5% and the Hen-day egg production ([1]; 500 mcg/kg body wt i.m. 8 d from day 15, day 16) was 93.8%. It also gave a Hen-day egg production ([1]; 500 mcg/kg body wt i.m. 8 d from day 15, day 18) of 31.3%, a Hen-day egg production ([1]; 500 mcg/kg body wt i.m. 8 d from day 15, day 20) of 31.3% and a Hen-day egg production ([1]; 500 mcg/kg body wt i.m. 8 d from day 15, day 22) of 6.3%. For the same compound, the Hen-day egg production ([1]; 500 mcg/kg body wt i.m. 8 d from day 15, day 24) was 6.3%, the Hen-day egg production ([1]; 500 mcg/kg body wt i.m. 8 d from day 15, day 26) was 6.3% and the Hen-day egg production ([1]; 500 mcg/kg body wt i.m. 8 d from day 15, day 28) was 6.3%. For the same compound, the Hen-day egg production ([1]; 500 mcg/kg body wt i.m. 8 d from day 15, day 30) was 25.0%, the “Size of regressed reproductive tracts at necropsy” value ([1]; 1,000 and 4,000 μg T4 Groups) was at most 50 % normal size and the “End of Injections Body Weight” value ([1]; 1,000 mcg/kg body wt i.m. 8 d) was 1167 g. The “Initial Body Weight” value ([1]; 1,000 mcg/kg body wt i.m. 8 d) was 1513 g, the Hen-day egg production ([1]; 1,000 mcg/kg body wt i.m. 8 d from day 15, day 14) was 81.3% and the Hen-day egg production ([1]; 1,000 mcg/kg body wt i.m. 8 d from day 15, day 16) was 68.8%. The Hen-day egg production ([1]; 1,000 mcg/kg body wt i.m. 8 d from day 15, day 18) was 31.3%, the Hen-day egg production ([1]; 1,000 mcg/kg body wt i.m. 8 d from day 15, day 20) was 12.5% and the Hen-day egg production ([1]; 1,000 mcg/kg body wt i.m. 8 d from day 15, day 22) was 0.0%. The Hen-day egg production ([1]; 1,000 mcg/kg body wt i.m. 8 d from day 15, day 24) was 0.0%, the Hen-day egg production ([1]; 1,000 mcg/kg body wt i.m. 8 d from day 15, day 26) was 0.0% and the Hen-day egg production ([1]; 1,000 mcg/kg body wt i.m. 8 d from day 15, day 28) was 0.0%. For the same compound, the Hen-day egg production ([1]; 1,000 mcg/kg body wt i.m. 8 d from day 15, day 30) was 0.0%, the “Onset of molt in all cages after the start of injection” value ([1]; 2,000 and 4,000 μg T4 Groups) was 9 days and the “End of Injections Body Weight” value ([1]; 2,000 mcg/kg body wt i.m. 3 d) was 1234 g. The “Initial Body Weight” value ([1]; 2,000 mcg/kg body wt i.m. 3 d) was 1510 g, the Hen-day egg production ([1]; 2,000 mcg/kg body wt i.m. 3 d from day 15, day 14) was 62.5% and the Hen-day egg production ([1]; 2,000 mcg/kg body wt i.m. 3 d from day 15, day 16) was 87.5%. It also gave a Hen-day egg production ([1]; 2,000 mcg/kg body wt i.m. 3 d from day 15, day 18) of 87.5%, a Hen-day egg production ([1]; 2,000 mcg/kg body wt i.m. 3 d from day 15, day 20) of 75.0% and a Hen-day egg production ([1]; 2,000 mcg/kg body wt i.m. 3 d from day 15, day 22) of 50.0%. For the same compound, the Hen-day egg production ([1]; 2,000 mcg/kg body wt i.m. 3 d from day 15, day 24) was 12.5%, the Hen-day egg production ([1]; 2,000 mcg/kg body wt i.m. 3 d from day 15, day 26) was 0.0% and the Hen-day egg production ([1]; 2,000 mcg/kg body wt i.m. 3 d from day 15, day 28) was 0.0%. For the same compound, the Hen-day egg production ([1]; 2,000 mcg/kg body wt i.m. 3 d from day 15, day 30) was 0.0%, the “End of Injections Body Weight” value ([1]; 4,000 mcg/kg body wt i.m. 3 d) was 1165 g and the “Initial Body Weight” value ([1]; 4,000 mcg/kg body wt i.m. 3 d) was 1387 g. For the same compound, the Hen-day egg production ([1]; 4,000 mcg/kg body wt i.m. 3 d from day 15, day 14) was 62.5%, the Hen-day egg production ([1]; 4,000 mcg/kg body wt i.m. 3 d from day 15, day 16) was 87.5% and the Hen-day egg production ([1]; 4,000 mcg/kg body wt i.m. 3 d from day 15, day 18) was 100.0%. For the same compound, the Hen-day egg production ([1]; 4,000 mcg/kg body wt i.m. 3 d from day 15, day 20) was 87.5%, the Hen-day egg production ([1]; 4,000 mcg/kg body wt i.m. 3 d from day 15, day 22) was 25.0% and the Hen-day egg production ([1]; 4,000 mcg/kg body wt i.m. 3 d from day 15, day 24) was 0.0%. The Hen-day egg production ([1]; 4,000 mcg/kg body wt i.m. 3 d from day 15, day 26) was 0.0%, the Hen-day egg production ([1]; 4,000 mcg/kg body wt i.m. 3 d from day 15, day 28) was 0.0% and the Hen-day egg production ([1]; 4,000 mcg/kg body wt i.m. 3 d from day 15, day 30) was 0.0%. For the same compound, the “Time out of egg production after treatment” value [2] was 4 weeks, the “Reduction in body weight gain compared to controls” value [3] was 28.18% and the “Week at which daily sperm output returned to control values” [4] was 11 week. The “Week at which plasma testosterone levels returned to control values” [4] was 5 week.
